Laboratory results as given in patent publication US20210261561A1, “BICYCLIC HETEROCYCLE DERIVATIVES HAVING SELECTIVE BACE1 INHIBITORY ACTIVITY” (SHIONOGI & CO., LTD., priority 2018, published 2021).

Assays:
[1] = molecular target: T1, BACE2 (Homo sapiens, UniProt Q9Y5Z0); test: BACE2 biochemical competitive radioligand binding assay (Test Example 1-1/1-2); parameters: expressed in transfected cells; host or cells: HEK 293 (membrane preparation); conditions: competition with tritiated non-selective BACE1/BACE2 inhibitor, BACE2-containing HEK 293 derived membrane, pH 6.2
T1 sequence (Q9Y5Z0 63-518): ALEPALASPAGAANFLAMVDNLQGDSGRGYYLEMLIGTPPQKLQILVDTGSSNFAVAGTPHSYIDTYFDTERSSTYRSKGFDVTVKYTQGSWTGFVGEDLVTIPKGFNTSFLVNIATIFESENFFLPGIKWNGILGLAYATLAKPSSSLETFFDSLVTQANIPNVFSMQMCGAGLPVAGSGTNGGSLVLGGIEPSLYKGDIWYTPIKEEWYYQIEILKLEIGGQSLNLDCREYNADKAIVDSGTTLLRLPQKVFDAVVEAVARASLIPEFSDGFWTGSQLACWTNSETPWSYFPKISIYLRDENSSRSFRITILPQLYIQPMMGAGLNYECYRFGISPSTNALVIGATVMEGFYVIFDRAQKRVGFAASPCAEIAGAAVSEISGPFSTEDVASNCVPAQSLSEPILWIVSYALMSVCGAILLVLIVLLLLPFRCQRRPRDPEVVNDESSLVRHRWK
Procedure: To explore the BACE1 versus BACE2 enzyme selectivity, the binding affinity (Ki) to the respective purified enzymes was determined in a competitive radioligand binding assay, i.e. in competition with a tritiated non-selective BACE1/BACE2 inhibitor.
Briefly in test tubes, compounds of interest were combined with the radioligand and the BACE1 or BACE2-containing HEK 293 derived membrane. The competitive binding reaction was performed at pH 6.2 and incubated at room temperature until the equilibrium was reached. Afterwards free radioligand was separated from bound radioligand by filtration with a Brandell 96 harvester. The filter was washed 4 times with washing buffer and the filter sheets were punched into scintillation vials. Ultima Gold scintillation cocktail was added and samples were shaken. The day after, the vials were counted in a Tricarb scintillation counter to obtain the disintegrations per minute (dpm) of the bound radioligand.
Calculating the % CTL=(sample/HC)*100, with HC being the high control, i.e. total binding of radioligand, allowed to fit curves through the data points of the different doses of test compound. The pIC50 or IC50 was calculated and could be converted to Ki by the formula Ki=IC50/(1+([RL]/Kd)), with [RL] being the used concentration of radioligand and Kd the determinated dissociation constant of the radioligand-membrane complex.
To explore the BACE1 versus BACE2 enzyme selectivity, the binding affinity (Ki) to the respective purified enzymes was determined in a competitive radioligand binding assay, i.e. in competition with a tritiated non-selective BACE1/BACE 2 inhibitor.
Briefly in test tubes, compounds of interest are combined with the radioligand and the BACE1 or BACE2-containing HEK 293 derived membrane. The competitive binding reaction is performed at pH 6.2 and incubated at room temperature until the equilibrium is reached. Afterwards free radioligand is separated from bound radioligand by filtration with a Brandell 96 harvester. The filter is washed 4 times with washing buffer and the filter sheets are punched into scintillation vials. Ultima Gold scintillation cocktail is added and samples are shaken. The day after, the vials are counted in a Tricarb scintillation counter to obtain the disintegrations per minute (dpm) of the bound radioligand.
Calculating the % Inhibition=100−[(sample−LC)/(HC−LC))*100], with HC being the high control, i.e. total binding of radioligand and LC representing the non-specific binding measured in the presence of 10 μM of 3-[(1S)-4-[isobutyl(2-morpholinoethyl)amino]-1-isopropyl-butyl]-6-phenoxy-4H-pyrido[3,4-d]pyrimidin-2-amine, a known BACE inhibitor, allows to fit curves through the data points of the different doses of test compound. The pIC50 or IC50 is calculated and can be converted to Ki by the formula Ki=IC50/(1+([RL]/Kd)), with [RL] being the used concentration of radioligand and Kd the determined dissociation constant of the radioligand-membrane complex.

[2] = system: Abeta 1-37, Abeta 1-38, Abeta 1-40 and Abeta 1-42 in cerebrospinal fluid (CSF); test: Pharmacology in the beagle dog, beta-amyloid profile in CSF (Test Example 18-2); format: in vivo; conditions: for % Decrease in Abeta 1-42 at 24 h^(a) or 25 h^(b) post dosing compared to own baseline: 24 h or 25 h
Procedure: Test compounds were tested to evaluate the effect on the beta-amyloid profile in cerebrospinal fluid (CSF) of dogs after a single dose, in combination with pharmacokinetic (PK) follow up and limited safety evaluation.
For each of compound II-6 or II-10, four beagle dogs (2 males, 2 females) were dosed with vehicle (1 mL/kg of an aqueous solution of 20% cyclodextrin) and 12 beagle dogs (2 males and 2 females per dosage group) were dosed with test compounds as follows:
In the case of compounds II-2, II-3 and II-18, two beagle dogs (1 male, 1 female) were dosed with vehicle (1 mL/kg of an aqueous solution of 20% cyclodextrin) and 4 beagle dogs (2 males and 2 females) were dosed with test compound (II-2, II-3, or II-18) at the doses indicated in the following Table in an aqueous 20% cyclodextrin solution with a concentration in mg/mL identical to the dose given in mg/kg) on an empty stomach.
CSF was taken in conscious animals directly from the lateral ventricle via a cannula which was screwed in the skull and covered with subcutaneous tissue and skin, before and at 4, 8, 25 and 49 hours after dosing. Eight hours after dosing the animals got access to their regular meal for 30 minutes. Blood was taken for PK follow up (0.5, 1, 2, 4, 8, 25 and 49 hours) and serum samples for biochemistry were taken before and at 8 and 25 h after dosing. The CSF samples were used for measurement of Abeta 1-37, Abeta 1-38, Abeta 1-40 and Abeta 1-42.

SMILES: CC1(S(C)(=O)=O)CCC(CF)(c2cc(NC(=O)c3cc4c(cn3)OCCO4)ccc2F)N=C1N (stereo not shown) [II-1]
- Ki [1]: 104 nM

SMILES: [2H]C1([2H])Oc2cnc(C(=O)Nc3ccc(F)c([C@]4(CF)CC[C@@](C)(S(C)(=O)=O)C(N)=N4)c3)cc2OC1([2H])[2H] [II-2]
- % Decrease in Abeta 1-42 at 8 h post dosing compared to own baseline ([2]; single dose 0.63 mg/kg): 33%
- Ki [1]: 95 nM

SMILES: [2H]C1([2H])Oc2cnc(C(=O)Nc3ccc(F)c([C@]4(CF)CC[C@@](C)(S(C)(=O)=O)C(N)=N4)c3)cc2OC1([2H])[2H] [II-3]
- % Decrease in Abeta 1-42 at 8 h post dosing compared to own baseline ([2]; single dose 5 mg/kg): 61%
- Ki [1]: 128 nM

SMILES: CC1(S(C)(=O)=O)CCC(CF)(c2cc(NC(=O)c3cc4c(cn3)OCO4)ccc2F)N=C1N (stereo not shown) [II-4]
- Ki [1]: 11.4 nM

SMILES: CC1(S(C)(=O)=O)CCC(CF)(c2cc(NC(=O)c3cc4c(cn3)OCCCO4)ccc2F)N=C1N (stereo not shown) [II-5]
- Ki [1]: 454 nM

SMILES: C[C@@]1(S(C)(=O)=O)CC[C@@](CF)(c2cc(NC(=O)c3cc4c(cn3)OC(F)(F)O4)ccc2F)N=C1N [II-6]
- % Decrease in Abeta 1-42 at 8 h post dosing compared to own baseline ([2]; single dose 0.16 mg/kg): 51%
- % Decrease in Abeta 1-42 at 24 h^(a) or 25 h^(b) post dosing compared to own baseline ([2]; single dose 0.16 mg/kg): 31%
- % Decrease in Abeta 1-42 at 8 h post dosing compared to own baseline ([2]; single dose 0.31 mg/kg): 69%
- % Decrease in Abeta 1-42 at 49 h post dosing compared to own baseline ([2]; single dose 0.31 mg/kg): 22%
- % Decrease in Abeta 1-42 at 8 h post dosing compared to own baseline ([2]; single dose 0.63 mg/kg): 68%
- % Decrease in Abeta 1-42 at 24 h^(a) or 25 h^(b) post dosing compared to own baseline ([2]; single dose 0.63 mg/kg): 62%
- Ki [1]: 103 nM

SMILES: C[C@@]1(S(C)(=O)=O)CC[C@@](CF)(c2cc(NC(=O)c3cc4c(cn3)OC(F)(F)O4)ccc2F)N=C1N [II-7]
- Ki [1]: 79 nM

SMILES: CC1(S(C)(=O)=O)CCC(CF)(c2cc(NC(=O)c3ncc4c(c3F)OCCO4)ccc2F)N=C1N (stereo not shown) [II-8]
- Ki [1]: 152 nM

SMILES: C[C@@]1(S(C)(=O)=O)CC[C@@](CF)(c2cc(NC(=O)c3cc4c(cn3)OC(F)(F)CO4)ccc2F)N=C1N [II-10]
- % Decrease in Abeta 1-42 at 8 h post dosing compared to own baseline ([2]; single dose 0.16 mg/kg): 37%
- % Decrease in Abeta 1-42 at 8 h post dosing compared to own baseline ([2]; single dose 0.63 mg/kg): 68%
- % Decrease in Abeta 1-42 at 24 h^(a) or 25 h^(b) post dosing compared to own baseline ([2]; single dose 0.63 mg/kg): 21%
- % Decrease in Abeta 1-42 at 8 h post dosing compared to own baseline ([2]; single dose 1.25 mg/kg): 73%
- % Decrease in Abeta 1-42 at 24 h^(a) or 25 h^(b) post dosing compared to own baseline ([2]; single dose 1.25 mg/kg): 27%
- % Decrease in Abeta 1-42 at 8 h post dosing compared to own baseline ([2]; single dose 2.5 mg/kg): 76%
- % Decrease in Abeta 1-42 at 24 h^(a) or 25 h^(b) post dosing compared to own baseline ([2]; single dose 2.5 mg/kg): 28%
- Ki [1]: 20 nM

SMILES: CC1(S(C)(=O)=O)CCC(CF)(c2cc(NC(=O)c3ncc4c(c3F)OC(F)(F)O4)ccc2F)N=C1N (stereo not shown) [II-13]
- Ki [1]: 56 nM

SMILES: CC1(S(C)(=O)=O)CCC(CF)(c2cc(NC(=O)c3ncc4c(c3F)OCC(F)(F)O4)ccc2F)N=C1N (stereo not shown) [II-14]
- Ki [1]: 23 nM

SMILES: [2H]C1([2H])Oc2cnc(C(=O)Nc3cc(F)c(F)c(C4(CF)CCC(C)(S(C)(=O)=O)C(N)=N4)c3)cc2OC1([2H])[2H] (stereo not shown) [II-16]
- Ki [1]: 434 nM

SMILES: CC1(S(C)(=O)=O)CCC(CF)(c2cc(NC(=O)c3cc4c(cn3)OC(F)(F)CO4)cc(F)c2F)N=C1N (stereo not shown) [II-17]
- Ki [1]: 29 nM

SMILES: CCS(=O)(=O)C1(C)CCC(CF)(c2cc(NC(=O)c3cc4c(cn3)OC(F)(F)CO4)ccc2F)N=C1N (stereo not shown) [II-19]
- Ki [1]: 15 nM

SMILES: CCS(=O)(=O)[C@]1(C)CC[C@@](CF)(c2cc(NC(=O)c3cc4c(cn3)OC(F)(F)O4)ccc2F)N=C1N [II-20]
- % Decrease in Abeta 1-42 at 8 h post dosing compared to own baseline ([2]; single dose 0.16 mg/kg): 51%
- % Decrease in Abeta 1-42 at 24 h^(a) or 25 h^(b) post dosing compared to own baseline ([2]; single dose 0.16 mg/kg): 30%
- % Decrease in Abeta 1-42 at 49 h post dosing compared to own baseline ([2]; single dose 0.16 mg/kg): 25%
- % Decrease in Abeta 1-42 at 8 h post dosing compared to own baseline ([2]; single dose 0.63 mg/kg): 72%
- % Decrease in Abeta 1-42 at 24 h^(a) or 25 h^(b) post dosing compared to own baseline ([2]; single dose 0.63 mg/kg): 70%
- % Decrease in Abeta 1-42 at 49 h post dosing compared to own baseline ([2]; single dose 0.63 mg/kg): 52%
- % Decrease in Abeta 1-42 at 8 h post dosing compared to own baseline ([2]; single dose 1 mg/kg): 73%
- % Decrease in Abeta 1-42 at 24 h^(a) or 25 h^(b) post dosing compared to own baseline ([2]; single dose 1 mg/kg): 76%
- % Decrease in Abeta 1-42 at 49 h post dosing compared to own baseline ([2]; single dose 1 mg/kg): 58%
- % Decrease in Abeta 1-42 at 8 h post dosing compared to own baseline ([2]; single dose 3.75 mg/kg): 86%
- % Decrease in Abeta 1-42 at 24 h^(a) or 25 h^(b) post dosing compared to own baseline ([2]; single dose 3.75 mg/kg): 91%
- % Decrease in Abeta 1-42 at 49 h post dosing compared to own baseline ([2]; single dose 3.75 mg/kg): 85%
- Ki [1]: 68 nM

SMILES: CC1(S(C)(=O)=O)CCC(CF)(c2cc(NC(=O)c3ncc4c(n3)OCCO4)cc(F)c2F)N=C1N (stereo not shown) [II-22]
- Ki [1]: 104 nM

SMILES: CCS(=O)(=O)C1(C)CCC(CF)(c2cc(NC(=O)c3cc4c(cn3)OC(F)(F)O4)cc(F)c2F)N=C1N (stereo not shown) [II-23]
- Ki [1]: 104 nM

SMILES: CC1(S(C)(=O)=O)CCC(CF)(c2cc(NC(=O)c3ncc4c(c3Cl)OC(F)(F)O4)ccc2F)N=C1N (stereo not shown) [II-25]
- Ki [1]: 53 nM

SMILES: CC1(S(C)(=O)=O)CCC(CF)(c2cc(NC(=O)c3ncc4c(c3Cl)OCCO4)ccc2F)N=C1N (stereo not shown) [II-26]
- Ki [1]: 220 nM

SMILES: CC1(S(=O)(=O)C2CC2)CCC(CF)(c2cc(NC(=O)c3cc4c(cn3)OC(F)(F)CO4)ccc2F)N=C1N (stereo not shown) [II-27]
- Ki [1]: 18 nM

SMILES: CC(C)S(=O)(=O)C1(C)CCC(CF)(c2cc(NC(=O)c3cc4c(cn3)OC(F)(F)CO4)ccc2F)N=C1N (stereo not shown) [II-28]
- Ki [1]: 91 nM

SMILES: C[C@@]1(c2cc(NC(=O)c3cc4c(cn3)OC(F)(F)O4)ccc2F)CC[C@@](C)(S(=O)(=O)C(F)(F)F)C(N)=N1 [II-29]
- Ki [1]: 11 nM
